Reference: patent US20130158075A1, “HETEROCYCLIC COMPOUNDS AS DGAT1 INHIBITORS” (PIRAMAL ENTERPRISES LIMITED, priority 2010, published 2013)

These molecules were tested against T1, hDGAT1 (Homo sapiens, UniProt O75907) (assay: In-vitro DGAT1 assay with hDGAT1 microsomes from Sf9 cells (14C oleoyl CoA, scintillation counting)). Conditions: at 1 μM.
T1 construct: made in house; host or cells: Sf9 insect cells (baculovirus); microsomal fraction
T1 sequence (O75907 1-488): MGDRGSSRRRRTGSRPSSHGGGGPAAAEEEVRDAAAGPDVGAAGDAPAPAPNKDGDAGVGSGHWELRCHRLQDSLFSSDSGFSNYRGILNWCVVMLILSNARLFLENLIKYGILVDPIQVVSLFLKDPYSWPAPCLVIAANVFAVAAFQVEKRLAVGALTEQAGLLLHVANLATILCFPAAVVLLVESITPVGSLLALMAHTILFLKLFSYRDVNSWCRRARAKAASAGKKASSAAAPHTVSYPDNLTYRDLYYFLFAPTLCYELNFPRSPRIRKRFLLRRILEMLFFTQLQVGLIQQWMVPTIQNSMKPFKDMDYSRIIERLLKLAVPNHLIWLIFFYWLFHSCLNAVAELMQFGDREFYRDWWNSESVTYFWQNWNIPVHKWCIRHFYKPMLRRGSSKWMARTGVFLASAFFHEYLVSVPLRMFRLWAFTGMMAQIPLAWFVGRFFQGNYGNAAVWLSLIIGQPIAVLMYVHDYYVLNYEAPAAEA
Type: biochemical
Method in brief: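 Radiolabelled triglyceride formation was measured: heptane extracts were scintillation-counted after a 10-min, 37 °C reaction stopped with alkaline ethanol. Enzyme was human DGAT1 in baculovirus-infected Sf9 microsomal membranes; substrates were 14C oleoyl-CoA plus dioleoylglycerol. Runs were duplicated, and inhibition (%) was related to nM compound concentration.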

| Percentage inhibition of hDGAT1 | SMILES |
| --- | --- |
| + (20-50% Inhibition) | O=C(Nc1ccc(-c2noc([C@H]3CC[C@H](C(=O)O)CC3)n2)cc1)c1ccc(OC(F)(F)F)cc1 [Example 233, (1r,4r)-4-(3-(4-(4-(Trifluoromethoxy)benzamido)phenyl)-1,2,4-oxadiazol-5-yl)cyclohexanecarboxylic acid] |

Same assay, conditions: read-out: Percentage inhibition of hDGAT1

| inhibition at 1 µM [%] | SMILES |
| --- | --- |
| > 50 | O=C(O)CC1CCC(c2ncc(-c3ccc(NC(=S)Nc4ccccc4F)cc3)s2)CC1 (centres unmarked) [Example 374, 2-(4-(5-(4-(3-(2-Fluorophenyl)thioureido)phenyl)thiazol-2-yl)cyclohexyl)acetic acid] |
| > 50 | Cc1nnc(CC2CCC(c3ncc(-c4ccc(NC(=O)Nc5ccc(F)cc5F)cc4)s3)CC2)o1 (centres unmarked) [Example 379, 1-(2,4-Difluorophenyl)-3-(4-(2-(4-((5-methyl-1,3,4-oxadiazol-2-yl)methyl)cyclohexyl)thiazol-5-yl)phenyl)urea] |
| > 50 | O=C(Nc1ccccc1)Nc1ccc(-c2cnc(C3CCC(C(=O)O)CC3)s2)cc1 (centres unmarked) [Example 192, 4-(5-(4-(3-Phenylureido)phenyl)thiazol-2-yl)cyclohexanecarboxylic acid] |
| > 50 | CC(C)(O)C1CCC(c2ncc(-c3ccc(NC(=O)Nc4cc(F)cc(F)c4)cc3)s2)CC1 (centres unmarked) [Example 405, 1-(3,5-Difluorophenyl)-3-(4-(2-(4-(2-hydroxypropan-2-yl)cyclohexyl)thiazol-5-yl)phenyl)urea] |
| > 50 | CC(C)(O)CC1CCC(c2ncc(-c3ccc(NC(=O)Nc4ccc(F)cc4F)cc3)s2)CC1 (centres unmarked) [Example 407, 1-(2,4-Difluorophenyl)-3-(4-(2-(4-(2-hydroxy-2-methylpropyl)cyclohexyl)thiazol-5-yl)phenyl)urea] |
| > 50 | O=C(Nc1ccccc1)Nc1ccc(-c2cnc(CCNS(=O)(=O)C(F)(F)F)s2)cc1 [Example 527, 1,1,1-Trifluoro-N-(2-(5-(4-(3-phenylureido)phenyl)thiazol-2-yl)ethyl)methane sulfonamide] |
| 20 to 50 | CC(C)(C)c1ccc(C(=O)Nc2ccc(-c3cnc(CCCC(=O)O)s3)cc2)cc1 [Example 57, 4-(5-(4-(4-Tert-butylbenzamido)phenyl)thiazol-2-yl)butanoic acid] |
| > 50 | O=C(Nc1ccc(-c2cnc(C3CCC(C(=O)O)CC3)s2)cc1)Nc1cccc(Cl)c1F (centres unmarked) [Example 152, 4-(5-(4-(3-(3-Chloro-2-fluorophenyl)ureido)phenyl)thiazol-2-yl)cyclohexane carboxylic acid] |
| 20 to 50 | CC(C)(CCc1ncc(-c2ccc(NC(=O)N3CCCCC3)cc2)s1)C(=O)O [Example 239, 2,2-Dimethyl-4-(5-(4-(piperidine-1-carboxamido)phenyl)thiazol-2-yl)butanoic acid] |
| > 50 | CC(C)(N)CC1CCC(c2ncc(-c3ccc(NC(=O)Nc4cc(F)c(F)cc4F)cc3)s2)CC1 (centres unmarked) [Example 591, 1-(4-(2-(4-(2-Amino-2-methylpropyl)cyclohexyl)thiazol-5-yl)phenyl)-3-(2,4,5-trifluorophenyl)urea] |
| > 50 | Cc1ccc(Cl)c(NC(=O)Nc2ccc(-c3cnc(C4CCC(C(=O)O)CC4)s3)cc2)c1 (centres unmarked) [Example 150, 4-(5-(4-(3-(2-Chloro-5-methylphenyl)ureido)phenyl)thiazol-2-yl)cyclohexane carboxylic acid] |
| 20 to 50 | Cc1noc(CC2CCC(c3ncc(-c4ccc(NC(=O)c5c(F)cccc5F)cc4)s3)CC2)n1 (centres unmarked) [Example 396, 2,6-Difluoro-N-(4-(2-(4-((3-methyl-1,2,4-oxadiazol-5-yl)methyl)cyclohexyl)thiazol-5-yl)phenyl)benzamide] |
| > 50 | O=C(Nc1ccc(-c2cnc(C3CCC(C(=O)O)CC3)s2)cc1)Nc1ccccc1C(F)(F)F (centres unmarked) [Example 166, 4-(5-(4-(3-(2-(Trifluoromethyl)phenyl)ureido)phenyl)thiazol-2-yl)cyclohexane carboxylic acid] |
| > 50 | O=C(Nc1ccc(-c2cnc(C3CCC(C(=O)O)CC3)o2)cc1)Nc1cccc(Cl)c1 (centres unmarked) [Example 208, 4-(5-(4-(3-(3-Chlorophenyl)ureido)phenyl)oxazol-2-yl)cyclohexanecarboxylic acid] |
| 20 to 50 | COCCNC(=O)Nc1ccc(-c2cnc(CCC(C)(C)C(=O)O)s2)cc1 [Example 249, 4-(5-(4-(3-(2-methoxyethyl)ureido)phenyl)thiazol-2-yl)-2,2-dimethylbutanoic acid] |
| 20 to 50 | CC(C)(Cc1ncc(-c2ccc(NC(=O)Nc3ccc(F)cc3)cc2)s1)C(=O)O [Example 34, 3-(5-(4-(3-(4-Fluorophenyl)ureido)phenyl)thiazol-2-yl)-2,2-dimethylpropanoic acid] |
| > 50 | O=C(Nc1ccc(-c2cnc(C3CCC(C(=O)O)CC3)s2)cc1)Nc1ccc(Cl)cc1C(F)(F)F (centres unmarked) [Example 160, 4-(5-(4-(3-(4-Chloro-2-(trifluoromethyl)phenyl)ureido)phenyl)thiazol-2-yl)cyclohexanecarboxylic acid] |
| 20 to 50 | CC(C)(C)OC(=O)N1CCC(c2ncc(-c3ccc(NC(=O)Nc4ccccc4F)cc3)s2)CC1 [Example 475, t-Butyl 4-(5-(4-(3-(2-fluorophenyl)ureido)phenyl)thiazol-2-yl)piperidine-1-carboxylate] |
| > 50 | Cc1ccc(F)c(NC(=O)Nc2ccc(-c3cnc(C4CCC(C(=O)O)CC4)s3)cc2)c1 (centres unmarked) [Example 174, 4-(5-(4-(3-(2-Fluoro-5-methylphenyl)ureido)phenyl)thiazol-2-yl)cyclohexane carboxylic acid] |
| > 50 | O=C(Nc1ccc(-c2cnc(C34CC5CC(CC(C(=O)O)(C5)C3)C4)s2)cc1)Nc1cc(F)cc(F)c1 [Example 512, 3-(5-(4-(3-(3,5-Difluorophenyl)ureido)phenyl)thiazol-2-yl)adamantane-1-carboxylic acid] |
| 20 to 50 | O=C(Nc1ccc(-c2cnc(C3CCN(S(=O)(=O)C(F)(F)F)CC3)s2)cc1)Nc1c(F)cc(F)cc1F [Example 486, 1-(4-(2-(1-((Trifluoromethyl)sulfonyl)piperidin-4-yl)thiazol-5-yl)phenyl)-3-(2,4,6-trifluorophenyl)urea] |
| > 50 | O=C(Nc1ccc(-c2cnc(C3CCC(C(=O)O)CC3)s2)cc1)Nc1ccccc1OC(F)(F)F (centres unmarked) [Example 168, 4-(5-(4-(3-(2-(Trifluoromethoxy)phenyl)ureido)phenyl)thiazol-2-yl)cyclo hexanecarboxylic acid] |
| > 50 | Cc1noc(CC2CCC(c3ncc(-c4ccc(NC(=O)Nc5cc(F)c(F)cc5F)cc4)s3)CC2)n1 (centres unmarked) [Example 393, 1-(4-(2-(4-((3-Methyl-1,2,4-oxadiazol-5-yl)methyl)cyclohexyl)thiazol-5-yl)phenyl)-3-(2,4,5-trifluorophenyl)urea] |
| > 50 | CC(C)(CC(=O)O)Cc1ncc(-c2ccc(NC(=O)Nc3cccc(C(F)(F)F)c3)cc2)s1 [Example 69, 3,3-Dimethyl-4-(5-(4-(3-(3-(trifluoromethyl)phenyl)ureido)phenyl)thiazol-2-yl)butanoic acid] |

| SMILES | inhibition at 1 µM [%] |
| --- | --- |
| CCCCOc1ccc(C(=O)Nc2ccc(-c3cnc(CCC(=O)O)s3)cc2)cc1 [Example 23, 3-(5-(4-(4-Butoxybenzamido)phenyl)thiazol-2-yl)propanoic acid] | > 50 |
